In patent publication US10351547B2, “Somatostatin modulators and uses thereof” (priority 2016, dated 2019):

The compounds below were run against human SSTR2 (Homo sapiens (Human), UniProt P30874) (assay: Human SSTR2 intracellular cAMP functional assay for agonists (HTRF)). Conditions: not given.
Assay type: cell-based
Method in brief: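 Cells bearing human SSTR2 exposed to compound for 20 minutes at 37 °C; after lysis, cAMP measured by time-resolved fluorescence (HTRF) and converted via a standard curve. EC50 calculated from cAMP versus compound concentration.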

Chain of human SSTR2 (P30874 whole entry): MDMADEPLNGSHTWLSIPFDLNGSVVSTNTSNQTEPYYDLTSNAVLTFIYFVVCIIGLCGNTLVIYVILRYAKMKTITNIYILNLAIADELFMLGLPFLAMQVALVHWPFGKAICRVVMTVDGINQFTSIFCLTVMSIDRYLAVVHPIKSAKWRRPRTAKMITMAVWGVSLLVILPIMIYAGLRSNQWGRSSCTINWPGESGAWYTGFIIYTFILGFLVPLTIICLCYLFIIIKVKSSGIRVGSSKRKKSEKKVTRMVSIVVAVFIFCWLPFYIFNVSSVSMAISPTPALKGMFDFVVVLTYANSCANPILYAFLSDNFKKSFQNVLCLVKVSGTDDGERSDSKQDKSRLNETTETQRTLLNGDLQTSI

Compound	EC50 [nM]
N#Cc1cc(F)cc(-c2ccc3ncc(-c4cc(F)cc(F)c4)c(N4CC(CN)C4)c3c2)c1O [2-23, 3-{4-[3-(aminomethyl)azetidin-1-yl]-3-(3,5-difluorophenyl)quinolin-6-yl}-5-fluoro-2-hydroxybenzonitrile]	100 to 1000
N#Cc1cc(Cl)c(F)c(-c2ccc3ncc(-c4cc(F)cc(F)c4)c(N4CCC(N)CC4)c3c2)c1O [2-147, 3-[4-(4-aminopiperidin-1-yl)-3-(3,5-difluorophenyl)quinolin-6-yl]-5-chloro-4-fluoro-2-hydroxybenzonitrile]	10 to 100
NC1CCN(c2c(-c3cc(F)cc(F)c3)cnc3ccc(-c4cccc(C(N)C(F)(F)F)c4)cc23)CC1 (centres unmarked) [2-132, 1-{6-[3-(1-amino-2,2,2-trifluoroethyl)phenyl]-3-(3,5-difluorophenyl)quinolin-4-yl}piperidin-4-amine]	10 to 100
CC[C@H](N)C1CN(c2c(-c3cc(C)cc(F)c3)cnc3ccc(-c4cc(F)cc(C#N)c4O)cc23)C1 [2-82, 3-(4-{3-[(1S)-1-aminopropyl]azetidin-1-yl}-3-(3-fluoro-5-methylphenyl)quinolin-6-yl)-5-fluoro-2-hydroxybenzonitrile]	10 to 100
CON=Cc1cc(-c2ccc3ncc(-c4cc(C)cc(F)c4)c(N4CCC(N)CC4)c3c2)ccc1O [2-213, 4-[4-(4-aminopiperidin-1-yl)-3-(3-fluoro-5-methylphenyl)quinolin-6-yl]-2-[(methoxyimino)methyl]phenol]	10 to 100
NC1CCN(c2c(-c3cc(F)cc(F)c3)cnc3ccc(-c4cncc(F)c4OC4COC4)cc23)CC1 [2-74, 1-[3-(3,5-difluorophenyl)-6-[5-fluoro-4-(oxetan-3-yloxy)pyridin-3-yl]quinolin-4-yl]piperidin-4-amine]	100 to 1000
Cc1cc(F)cc(-c2cnc3ccc(-c4cc(F)cc(C#N)c4O)cc3c2N2CC(CNCC(C)O)C2)c1 (centres unmarked) [2-51, 5-fluoro-3-[3-(3-fluoro-5-methylphenyl)-4-(3-{[(2-hydroxypropyl)amino]methyl}azetidin-1-yl)quinolin-6-yl]-2-hydroxybenzonitrile]	10 to 100

Same assay, conditions: CHO-K1 cells stably expressing human SSTR2; NKH477-stimulated cAMP; read-out: EC50 (inhibition of cAMP activities via human SST2R)

Compound	EC50 [nM]
Cc1cc(F)cc(-c2cnc3ccc(-c4cc(F)cc5[nH]c(=O)[nH]c45)nc3c2N2CCC(N)CC2)c1 [3-3, 4-[8-(4-aminopiperidin-1-yl)-7-(3-fluoro-5-methylphenyl)-1,5-naphthyridin-2-yl]-6-fluoro-2,3-dihydro-1H-1,3-benzodiazol-2-one]	< 10
CONC(=O)Nc1c(F)cc(C#N)cc1-c1ccc2ncc(-c3cc(C)cc(F)c3)c(N3CCC(N)CC3)c2c1 [2-237, 1-{2-[4-(4-aminopiperidin-1-yl)-3-(3-fluoro-5-methylphenyl)quinolin-6-yl]-4-cyano-6-fluorophenyl}-3-methoxyurea]	< 10
N#Cc1cccc(-c2ccc3ncc(-c4cc(F)cc(F)c4)c(N4CC[C@@H](N)[C@H](F)C4)c3c2)c1O [2-59, 3-{4-[(3R,4R)-4-amino-3-fluoropiperidin-1-yl]-3-(3,5-difluorophenyl)quinolin-6-yl}-2-hydroxybenzonitrile]	< 10
COC(=O)Nc1c(F)cc(F)cc1-c1ccc2ncc(-c3cc(C)cc(F)c3)c(N3CCC(N)CC3)c2c1 [2-197, methyl N-{2-[4-(4-aminopiperidin-1-yl)-3-(3-fluoro-5-methylphenyl)quinolin-6-yl]-4,6-difluorophenyl}carbamate]	< 10
Cc1cc(F)cc(-c2cnc3ccc(-c4cncc(F)c4N)cc3c2N2CCC(N)CC2)c1 [2-169, 3-[4-(4-aminopiperidin-1-yl)-3-(3-fluoro-5-methylphenyl)quinolin-6-yl]-5-fluoropyridin-4-amine]	< 10
N#Cc1cccc(-c2cc3c(N4CCC(N)CC4)c(-c4cc(Cl)cc(Cl)c4)nnc3cc2Cl)c1O [1-11, 3-[4-(4-aminopiperidin-1-yl)-7-chloro-3-(3,5-dichlorophenyl)cinnolin-6-yl]-2-hydroxybenzonitrile]	< 10
CONC(=O)Nc1c(F)cccc1-c1ccc2ncc(-c3cc(F)cc(OC)c3)c(N3CCC(N)CC3)c2c1 [2-174, 1-{2-[4-(4-aminopiperidin-1-yl)-3-(3-fluoro-5-methoxyphenyl)quinolin-6-yl]-6-fluorophenyl}-3-methoxyurea]	< 10
Cc1cc(F)cc(-c2cnc3ccc(-c4cncc(F)c4C=NO)cc3c2N2CCC(N)CC2)c1 [2-168, 1-(6-{5-fluoro-4-[(hydroxyimino)methyl]pyridin-3-yl}-3-(3-fluoro-5-methylphenyl)quinolin-4-yl)piperidin-4-amine]	< 10
NC1CCN(c2c(-c3cc(F)cc(F)c3)cnc3ccc(-c4cccc(F)c4C=NO)cc23)CC1 [2-126, 1-[3-(3,5-difluorophenyl)-6-{3-fluoro-2-[(hydroxyimino)methyl]phenyl}quinolin-4-yl]piperidin-4-amine]	< 10
N#Cc1ccc(NC(=O)NOCC(F)(F)F)c(-c2ccc3ncc(-c4cc(F)cc(F)c4)c(N4CCC(N)CC4)c3c2)c1 [2-238, 1-{2-[4-(4-aminopiperidin-1-yl)-3-(3,5-difluorophenyl)quinolin-6-yl]-4-cyanophenyl}-3-(2,2,2-trifluoroethoxy)urea]	< 10
Cc1cc(F)cc(-c2cnc3ccc(-c4cncc(C#N)c4N)cc3c2N2CCC(N)CC2)c1 [2-187, 4-amino-5-[4-(4-aminopiperidin-1-yl)-3-(3-fluoro-5-methylphenyl)quinolin-6-yl]pyridine-3-carbonitrile]	< 10
NC1CCN(c2c(-c3cc(F)cc(F)c3)cnc3ccc(-c4ccccc4O)cc23)CC1 [2-6, 2-[4-(4-aminopiperidin-1-yl)-3-(3,5-difluorophenyl)quinolin-6-yl]phenol]	< 10
N#Cc1cccc(-c2ccc3nnc(-c4cc(F)cc(Cl)c4)c(N4CCC(N)CC4)c3c2)c1O [1-19, 3-[4-(4-aminopiperidin-1-yl)-3-(3-chloro-5-fluorophenyl)cinnolin-6-yl]-2-hydroxybenzonitrile]	< 10
Nc1cncnc1-c1ccc2ncc(-c3cc(F)cc(F)c3)c(N3CC[C@H]4NCCO[C@@H]4C3)c2c1 (relative stereo) [2-255, 4-{4-[trans-octahydro-1H-pyrido[3,4-b]morpholin-6-yl]-3-(3,5-difluorophenyl)quinolin-6-yl}pyrimidin-5-amine]	10 to 100
Cc1cc(F)cc(-c2nnc3cc(Cl)c(-c4cc(F)cc(C(N)=O)c4)cc3c2N2CCC(N)CC2)c1 [1-4, 3-[4-(4-aminopiperidin-1-yl)-7-chloro-3-(3-fluoro-5-methylphenyl)cinnolin-6-yl]-5-fluorobenzamide]	< 10
COC(=O)Nc1c(C#N)cc(F)c(F)c1-c1ccc2ncc(-c3cc(C)cc(F)c3)c(N3CCC(N)CC3)c2c1 [2-205]	< 10
N#Cc1cnc(N2CCC2)c(-c2ccc3ncc(-c4cc(F)cc(F)c4)c(N4CCC(N)CC4)c3c2)c1 [2-75, 5-[4-(4-aminopiperidin-1-yl)-3-(3,5-difluorophenyl)quinolin-6-yl]-6-(azetidin-1-yl)pyridine-3-carbonitrile]	< 10
N#Cc1cccc(-c2ccc3ncc(-c4cc(F)cc(F)c4)c(N4CCC(N)CC4)c3c2)c1N [2-77, 2-amino-3-[4-(4-aminopiperidin-1-yl)-3-(3,5-difluorophenyl)quinolin-6-yl]benzonitrile]	< 10
COCCOc1c(C#N)cccc1-c1ccc2ncc(-c3cc(F)cc(F)c3)c(N3CC[C@H](N)[C@H](O)C3)c2c1 (relative stereo) [2-225, cis-3-{4-[4-amino-3-hydroxypiperidin-1-yl]-3-(3,5-difluorophenyl)quinolin-6-yl}-2-(2-methoxyethoxy)benzonitrile]	< 10
